From patent US20070224273A1, “Multifunctional Supramolecular Hydrogels as Biomaterials” (priority 2004, published 2007) come the findings set out here.

Molecules are shown by their SMILES. Peptide text beside a SMILES is read from it. * marks the point of attachment. Butanoyl(4-pyren-1-yl) = O=C(CCCc1ccc2ccc3cccc4ccc1c2c34)*; Acetyl(1-naphthyl) = O=C(Cc1cccc2ccccc12)*

The nature of series [1]: Solubility in water of pentapeptide derivatives. The format is physicochemical. An excerpt:
Most of the compounds can gel water under appropriate pH. When the pH becomes higher than the listed value, the gel tends to become a clear solution, while a lower pH always leads to precipitation rather than homogeneous gel formation. GAGAS (SEQ ID No. 1), the epitope with the least bulk side chains, appears to be quite hydrophilic in water.
However, it is still not a good candidate as a hydrophilic tail in a hydrogelator. […] Hydrogel by Fmoc-GVGVP can be obtained by carefully adjusting the pH to 4.8, with the hydrogel not being thermal-reversible. […] Upon heating, it also melts. All three compounds, with VPGVG as the hydrophilic part, fail to gel water at the tested condition. They all show sharp solubility changes with pH and low melting points.

Series [2] is described as follows: Artificial enzyme (hemin) activity assay, oxidation of pyrogallol by H2O2. In kind it is biochemical. The protocol: Activity assay: Using the oxidation of pyrogallol (10.0 mM) by H2O2 (40.0 mM) as a model reaction and fixing the total concentration of Hemin to 5 μM in the mixture, we examined the activity of Hemin by monitoring the absorbance (420 nm) of purpurogallin, the product of Hemin-catalyzed oxidation of pyrogallol. The catalytic reaction course of the artificial enzyme was measured by monitoring the increase in absorbance along with time change. The absorbance increase in the first minute was defined to be the initial rate. The Lineweaver-Burk plots constructed by the reaction initial rates at different pyrogallol concentrations were used to estimate their kinetic constant values. The other substrates, including o-phenyldiamine (product absorption at 450 nm) and o-aminophenol (product absorption at 430 nm), were employed under the same procedure of pyrogallol.
Using the oxidation of pyrogallol as a model reaction and fixing the total concentration of Hemin to be 5 μM in the mixture, we obtained the catalytic rate of Hemin by monitoring the changes of the absorbance of purpurogallin, the product of Hemin-catalyzed oxidation of pyrogallol. […] The Lineweaver-Burk plots constructed by the reaction initial rates at different pyrogallol concentrations gave the activity of the artificial enzyme. The kinetics of the catalysis of artificial enzyme follows Michaelis-Menten equation, which indicated successful design and generation of an artificial peroxidase by encapsulating hemin into hydrogel. […] Two factors likely contribute to the high activity of Hemin(Phe) in pH 7,4 buffer: (i) localization of hemin on the nanofibers preserves the catalytic species—monomeric hemin; (ii) the mesoporous structure in hydrogel facilitates the substrate across the hydrogel network to access the hemin in the hydrogel.

Series [3] concerns the target T1, CTX-M14 (extended-spectrum β-lactamase) (Escherichia coli, UniProt Q9L5C7).
T1 construct: endogenous in cells; host or cells: E. coli (sonicated lysate)
Put plainly: Cell lysate added to solution of precursor 3, sample C. The format is biochemical, E. coli. How it is done:
(§1) To evaluate whether precursor 3 would respond to β-lactamases in bacteria, solution of precursor 3 was treated with sonicated lysates of E. coli.

Series [4] concerns the target T2, TEM-1 (broad-spectrum β-lactamase) (Escherichia coli, UniProt P62593).
T2 construct: endogenous in cells; host or cells: E. coli (sonicated lysate)
The format is biochemical, E. coli. The conditions noted are these: lysate TEM-1. How it is done: as §1

In series [5] the test system is JP995 (β-lactamase negative E. coli control). Put plainly: Cell lysate added to solution of precursor 3, sample D. In kind it is biochemical. The conditions noted are these: precursor 3 to form 1 after 6 hours. The protocol:
as §1

Series [6] concerns the target T3, SHV-1 (broad-spectrum β-lactamase) (Escherichia coli, UniProt P0AD63).
T3 construct: endogenous in cells; host or cells: E. coli (sonicated lysate)
Put plainly: Cell lysate added to solution of precursor 3, sample E. In kind it is biochemical, E. coli. The conditions noted are these: lysate SHV-1. The protocol: as §1

Series [7] relates to C600 (β-lactamase negative E. coli control). Put plainly: Cell lysate added to solution of precursor 3, sample A. In kind it is biochemical. The conditions noted are these: precursor 3 to form 1 after 6 hours. How it is done:
as §1

Series [8] concerns CTX-M13 (extended-spectrum β-lactamase). Put plainly: Cell lysate added to solution of precursor 3, sample B. In kind it is biochemical, E. coli. How it is done:
as §1

Series [9] is described as follows: Solution of precursor 3, sample G (only water, no enzyme). The conditions noted are these: precursor 3 to form 1 after 6 hours. The format is biochemical. How it is done:
as §1

A further series has as its system acid phosphatase. Put plainly: Visual hydrogelation assay for enzyme inhibitors (conversion of 9 to 10). The format is biochemical. The conditions noted are these: pH=6.0, 37° C., solution-to-gel transition after 30 minutes. An excerpt: FIG. 6 illustrates the design of the visual assay. The precursor, which acts as the substrate of an enzyme, transforms into a hydrogelator when the enzyme catalyzes its conversion. Then, the self-assembly of the hydrogelators in water induces the formation of hydrogel. When inhibitors competitively bind with the active site of the enzyme and block the conversion of the precursor catalyzed by the enzyme, no hydrogel forms. Therefore, the macroscopic solution-to-gel transition (which can be observed visually) of the solution of the precursor reports the inactivation of the enzyme by the inhibitors.
This approach has a unique feature—it enlists water molecules as part of the reporting system. In addition, no spectrometer is required for observing the solution-to-gel phase transition. This simple and inexpensive method may be useful, not only for screening the inhibitors but also, for detecting the presence of enzymes when appropriate precursors are used. To verify the feasibility of the design shown in FIG. 6, a simple amino acid derivative (9), which can be converted into a hydrogelator (10) by dephosphorylation, was used to screen the inhibitors for an acid phosphatase.
Since the acid phosphatase catalyzes the conversion of 9 to 10 and leads to hydrogelation at a pH=6.0 and 37° C., the event of hydrogelation can indicate the activity of inhibitors for the acid phosphatase itself. Pamidronate disodium, Zn^2+, and sodium orthovanadate (Na3VO4) were chosen to estimate their minimum inhibition concentrations for the acid phosphatase. The three compounds were first mixed with the enzyme at a series of concentrations, respectively, followed by the addition of 9 to the solutions 10 minutes after mixing. After an additional 30 minutes of incubation, the solution-to-gel phase transition indicates the minimum inhibition concentration of the compounds. From the changes of rows 2, 3, and 4 in FIG. 7, the minimum inhibition concentrations of Pamidronate disodium, Zn^2+, and sodium orthovanadate (Na3VO4) for the acid phosphatase were determined to be 33 mM, 0.33 mM, and 3.3 mM, respectively.

The nature of series [10]: Hydrogelation in water (ability, concentration, pH). The format is physicochemical.
Protocol: Typically, after 2 mg of 1 was suspended in 1.0 mL of water, the increase of temperature to 80° C. gave a clear solution. Cooling the solution to room temperature led to a slightly opaque hydrogel (Gel I, FIG. 20A). Similar procedure afforded the hydrogel of 2 (Gel II, FIG. 20B).
[11] abbreviates: precursor 3 to form 1 after 6 hours.

T3 sequence (P0AD63 22-286): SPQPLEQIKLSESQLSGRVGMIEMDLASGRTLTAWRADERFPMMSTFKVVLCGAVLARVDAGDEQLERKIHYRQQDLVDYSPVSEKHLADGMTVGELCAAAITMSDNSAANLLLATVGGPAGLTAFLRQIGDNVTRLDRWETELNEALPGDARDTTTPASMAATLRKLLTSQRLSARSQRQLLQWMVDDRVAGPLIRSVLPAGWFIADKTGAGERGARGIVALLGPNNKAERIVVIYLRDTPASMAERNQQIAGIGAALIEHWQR
T2 sequence (P62593 24-286 limits assumed): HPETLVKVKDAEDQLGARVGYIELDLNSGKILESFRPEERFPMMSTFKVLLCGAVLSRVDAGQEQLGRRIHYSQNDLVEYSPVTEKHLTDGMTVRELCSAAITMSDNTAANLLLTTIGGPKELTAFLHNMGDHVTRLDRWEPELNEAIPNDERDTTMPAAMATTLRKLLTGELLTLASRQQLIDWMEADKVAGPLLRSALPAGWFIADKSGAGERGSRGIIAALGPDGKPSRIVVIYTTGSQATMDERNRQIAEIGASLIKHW
T1 sequence (Q9L5C7 entry or part of it): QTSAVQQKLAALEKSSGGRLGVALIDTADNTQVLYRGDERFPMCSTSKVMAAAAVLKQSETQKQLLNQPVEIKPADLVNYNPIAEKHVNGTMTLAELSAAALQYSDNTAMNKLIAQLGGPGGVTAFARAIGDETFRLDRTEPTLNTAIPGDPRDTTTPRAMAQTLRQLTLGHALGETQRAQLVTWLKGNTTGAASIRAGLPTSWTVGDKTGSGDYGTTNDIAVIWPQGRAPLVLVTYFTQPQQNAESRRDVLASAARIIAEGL

Regarding `O=C(O)[C@H]1/C(=C/CO)O[C@@H]2CC(=O)N21` [clavulanic acid, reference compound], the “hydrogel formation with β-lactamase and inhibitor” value with β-lactamase (precursor 3 added to β-lactamase and inhibitor) is recorded as “failed to yield a hydrogel”.

Turning to `CC(C)[C@H](NC(=O)CCCc1ccc2ccc3cccc4ccc1c2c34)C(=O)N[C@@H](Cc1ccc(O)cc1)C(=O)NCC(=O)NCC(=O)NCC(=O)O` [Pyrene-VYGGG] ({Butanoyl(4-pyren-1-yl)}-VYGGG-OH), the solubility in water entry in series [1] is reported as “insoluble in water even under basic conditions”.

For `C=CC1=C(C)c2cc3[n-]c(cc4nc(cc5[n-]c(cc1n2)c(C)c5CCC(=O)O)C(CCC(=O)O)=C4C)c(C)c3C=C.[Cl-].[Fe+3]` [Hemin(Free), hemin chloride], the “retention of catalytic ability during reaction” value in series [2] (15 minutes course, water buffer and toluene) was “lost most catalytic ability after 5 min”. The kcat in buffer in series [2] (buffer (0.01 M, pH 7.4, phosphate)) was 0.04 s⁻¹. In addition, the kcat in toluene in [2] (toluene) was 0.045 s⁻¹.

`NCC(=O)N[C@@H]1C(=O)N2C(C(=O)O)=C(CSCCNC(=O)[C@H](Cc3ccccc3)NC(=O)[C@H](Cc3ccccc3)NC(=O)Cc3ccc4ccccc4c3)CS[C@H]12` [Precursor 3]: the “start of hydrogelation (dynamic time sweep)” value in the series with β-lactamase (after addition of the β-lactamases) was “about 22 minutes”. Moreover, in the series on β-lactamase (one hour after addition of β-lactamase, room temperature), the “precursor 3 transformed into 1 (HPLC)” value amounted to 49.0%. Besides, the “conversion of 3 to 1 (HPLC)” value in the series on β-lactamase (β-lactamase and its inhibitor (clavulanic acid), after 12 hours) is 3.4%. The Gelation result in series [3] (precursor 3 0.35 wt %), in series [4] (precursor 3 0.35 wt %), in series [6] (precursor 3 0.35 wt %) and in series [8] (precursor 3 0.35 wt %) was “+ (Gels form in less than 2 hours)” in each case. The “Conversion (%)” value was 99.5% in series [3] (setting [11]); 84.3% in series [4] (setting [11]); 5.8% in series [5]; 65.2% in [6] (setting [11]); less than 0.5% in series [7]; less than 0.5% in [7] (listed as precursor 3). Besides, the “Conversion (%)” value in series [8] (setting [11]) was 99.7%; in [9], less than 0.5%; in [9] (listed as precursor 3) it was less than 0.5%.

As to `C[C@H](NC(=O)CNC(=O)Cc1cccc2ccccc12)C(=O)NCC(=O)N[C@@H](C)C(=O)N[C@@H](CO)C(=O)O` [Naph-GAGAS] ({Acetyl(1-naphthyl)}-GAGAS-OH), the solubility in water entry in [1] was “soluble in water even under low pH and high concentration”.

For the compound `NCCC(O)(P(=O)(O)O)P(=O)(O)O` [Pamidronate disodium], the minimum inhibition concentration with acid phosphatase worked out at 33 mM.

Turning to `O=C(Cc1ccc2ccccc2c1)NC1C(O)OC(CO)C(O)C1O` [Nap-D-Glucosamine], the “ability to gel water / form hydrogel” value in series [10] is “fail to form supramolecular hydrogels”.

For the compound `O=C(Cc1ccc2ccccc2c1)NC(Cc1ccccc1)C(=O)NC(Cc1ccccc1)C(=O)NC1C(O)OC(CO)C(O)C1O` [Nap-L-Phe-L-Phe-D-Glucosamine], in series [10], the “ability to gel water / form hydrogel” value was “fail to form supramolecular hydrogels”.

As to `CC(C)[C@H](NC(=O)CNC(=O)Cc1cccc2ccccc12)C(=O)NCC(=O)N[C@H](C(=O)N1CCC[C@H]1C(=O)O)C(C)C` [Naph-GVGVP] ({Acetyl(1-naphthyl)}-GVGVP-OH), the solubility in water entry in [1] is “either dissolves in water at a pH higher than 4 or becomes a suspension at a lower pH”.

In the case of `[Na+].[Na+].[Na+].[O]=[V]([O-])([O-])[O-]` [sodium orthovanadate], in the series on acid phosphatase, the minimum inhibition concentration amounted to 3.3 mM.

Compound `[Zn+2]` [Zn^2+] had a minimum inhibition concentration in the series with acid phosphatase of 0.33 mM.
